Assay results reported in patent publication US6211155A, “Peptide conjugates derived from thymic hormones, their use as a medicament and compositions containing them” (Institut European de Biologie Cellulaire, priority 1995, dated 2001).
Where no end group is shown, it is not given here.

How the values were obtained:
[1] = tested on: normal human keratinocytes; assay: Synthesis of 46-47 KD keratin by human keratinocytes in primary culture; assay type: cell-based; conditions: compared with a control
Method: (§1) Culture of normal human keratinocytes
(§2) The epidermis is then dissociated under gentle mechanical action, or enzymically, in order to obtain the individual cells. Only the basal cells are capable of multiplying in vitro.
(§3) The culture is carried out at 37° C. in a controlled moist atmosphere ([…] --5% CO2).
(§4) In monolayer culture, the calcium concentration is between 0.05 and 0.1 mM. […] The synthesis of the keratinocytes is maintained. The intercellular spaces are wide: cell connections are maintained by microvillosities and not by tight junctions. While the tonofilaments of the perinuclear space can be seen, they are still not attached to the anchoring plaques.
(§5) Stratification can be induced by increasing the final calcium concentration in the culture medium to 1.2 mM. The formation of desmosomes then appears after 2 hours.
(§6) I ETF derivative No. IX, which has been lyophilized
in Dextran (40 g/l) and which is at a concen-
tration of 10^-6 M in the final culture medium.
II Crist. SIGMA thymopoietin - at a concentration of
10^-6 M in the final culture medium.
(§7) Human keratinocytes are cultured as described by Henning et al. (1983) or Fuchs et al. (1981). Air/liquid cultures are also carried out using the following methodology.
The cell markers which are selected are the low-molecular-weight 46/47 KD keratins, which are specific for the growth and cell differentiation of the germinative cells.
(§8) Indirect fluorescent labeling by the sandwich technique--48 hours after adding calcium to the culture medium (stratification).
rat antihuman 46-47 KD keratin antibody
FITC-labeled mouse antirat Ig G2 antibody.
(§9) Use of immunofluorescence, with graphic recording, for measuring cell markers.
(§10) Spectrofluorometric assays
(§11) "Perkin Elmer LS-50 B spectrofluorimeter".
(§12) on cell homogenate supernatants.
(§13) LOWRY technique using a Perkin Elmer UV spectrophotometer (cell homogenate supernatants).
(§14) The fluorescence intensity of the cells treated with ETF No. IX is assessed in comparison with the fluorescence intensity of the controls.

[2] = tested on: normal human keratinocytes; assay: Synthesis of keratohyalin (filaggrin) by human keratinocytes in primary culture; assay type: cell-based; conditions: for Stimulation % (keratohyalin synthesis): compared with a control; for Keratin/protein mean (keratohyalin synthesis, Table III): proteins expressed in micrograms/ml
Method: as §1, §2, §3, §4, §5, §6
in Dextran (40 g/l) and which is at a concen- […]
II Crist. SIGMA thymopoietin - at a concentration of […]
as §7
The filaggrins are markers of keratohyalin.
as §8
human antikeratohyalin (filaggrin) antibody
FITC-labeled goat antihuman Ig G antibody.
as §9, §10, §11, §12, §13, §14

[3] = tested on: Thy 1.2+ thymocytes of the epidermis; assay: Thy 1.2+ epidermal cell density after topical application to mouse ear (immunofluorescence); assay type: in vivo, C57-BL/6 mice; conditions: for Number of Thy 1.2+ cells per mm^2 of epidermis, batch 1 / Number of Thy 1.2+ cells per mm^2 of epidermis, batch 2 / Number of Thy 1.2+ cells per mm^2 of epidermis, batch 3 / Number of Thy 1.2+ cells per mm^2 of epidermis, batch 4 / Number of Thy 1.2+ cells per mm^2 of epidermis, Mean: C 57 BL/6 mice; for Number of Thy 1.2+ cells per mm^2 of epidermis, Mean: 4 batches; for Thy 1.2+ cells % T: relative to PG controls
Method: (§15) I--Experimental Samples--Code: ETF
(§16) In solution in propylene glycol at a concentration of 10^-5 M/ml
(§17) 5 to 7-week-old male C 57-BL/6 mice, which are divided into groups of 4 per cage, and which have free access to water and food and which are subjected to a photoperiod of 12 h of light per 24 hours, are given a topical application of the peptide in propylene glycol (50 μl vol) on the dorsal surface of the ear daily for 5 consecutive days.
(§18) The animals are sacrificed on day 6. The ears are removed, with the dorsal and ventral surfaces being separated.
(§19) The tissues of the dorsal surface are immersed in Na EDTA (0.020 M) at 37° C. for 2 h.
(§20) After incubation, the epidermis is removed in the form of an intact sheet, fixed with acetone and rehydrated in PBS (phosphate buffer).
(§21) The Thy 1-2+ and Ia+ EDC (epidermal dendritic cells) are identified by indirect immunofluorescence double labeling.
(§22) In the case of each epidermal sheet, the number of cells per mm^2 is determined using the peripheral regions of the same surface.
The Thy 1.2+ EDC were identified by indirect immunofluorescence double labeling. The epidermal sheets were fixed with acetone and then rehydrated in PBS.
The tissues were labeled simultaneously, at 4° C. for 16 h, with mouse anti-Thy 1.2+ antibody which was diluted 1:100. The tissue samples were washed three times in PBS for 60 min and then incubated, at 37° C. for 60 min, either with goat antimouse antibody which was coupled to rhodamine and diluted 1:20, or with goat antirabbit antibody which was coupled to fluorescein (fluorescine and diluted 1:20 in PBS. The tissues were then washed in PBS before being mounted as previously described.
(§23) In the case of each epidermal sheet, the number of Ia+ Langerhans cells or Thy 1.2+ EDCs per square millimeter was determined by means of immunofluorescence, using a confocal Zeiss microscope which was equipped for this purpose, in four peripheral areas of the same surface. At least four animals were studied in each of the groups. The density of Ia+ Langerhans cells and Thy 1.2+ EDCs is shown for each measurement.

[4] = tested on: Ia+ Langerhans cells; assay: Ia+ Langerhans cell density after topical application to mouse ear; assay type: in vivo, C57-BL/6 mice; conditions: for Number of Ia+ cells per mm^2 of epidermis, batch 1 / Number of Ia+ cells per mm^2 of epidermis, batch 2 / Number of Ia+ cells per mm^2 of epidermis, batch 3 / Number of Ia+ cells per mm^2 of epidermis, batch 4 / Number of Ia+ cells per mm^2 of epidermis, Mean: C 57 BL/6 mice; for Number of Ia+ cells per mm^2 of epidermis, Mean: 4 batches; for Ia+ cells %: relative to PG controls
Method: as §15, §16, §17, §18, §19, §20, §21, §22
The EDC (epidermal dendritic cells) carrying the Ia+ marker were identified using an anti-Ia+ monoclonal antibody.
The epidermal sheets are fixed with acetone and then incubated, at 37° C. for 1 h, in the presence of the anti-Ia+ monoclonal antibody, which has been labeled by the indirect immunoperoxidase method (Kit).
After having been incubated at 37° C. for 10 minutes with a solution of aminoethylcarbazole, the preparation is washed with PBS.
as §23

Substance: thymopoietin [reference compound]
- Stimulation % (46-47 KD keratin synthesis) ([1]; Concentration 10^-6 M): 19%
- Stimulation % (keratohyalin synthesis) ([2]; Concentration 10^-6 M): 35%
- Keratin/protein mean (keratohyalin synthesis, Table III) ([2]; Concentration 10^-6 M): 4.99

Substance: A-Arg-Lys-Asp-Val-NH2 (RKDV; not fully specified (N-terminus, C-terminus)) [ETF-XIX, A not specified for the tested sample]
- Number of Thy 1.2+ cells per mm^2 of epidermis, batch 1 ([3]; dose 0.10 Nanog.): 216 cells per mm^2
- Number of Thy 1.2+ cells per mm^2 of epidermis, batch 2 ([3]; dose 0.10 Nanog.): 210 cells per mm^2
- Number of Thy 1.2+ cells per mm^2 of epidermis, batch 3 ([3]; dose 0.10 Nanog.): 219 cells per mm^2
- Number of Thy 1.2+ cells per mm^2 of epidermis, batch 4 ([3]; dose 0.10 Nanog.): 212 cells per mm^2
- Number of Thy 1.2+ cells per mm^2 of epidermis, Mean ([3]; dose 0.10 Nanog.): 214.25 cells per mm^2
- Thy 1.2+ cells % T ([3]; dose 0.10 Nanog.): 143%
- Number of Thy 1.2+ cells per mm^2 of epidermis, batch 1 ([3]; dose 0.50 Nanog.): 220 cells per mm^2
- Number of Thy 1.2+ cells per mm^2 of epidermis, batch 2 ([3]; dose 0.50 Nanog.): 215 cells per mm^2
- Number of Thy 1.2+ cells per mm^2 of epidermis, batch 3 ([3]; dose 0.50 Nanog.): 228 cells per mm^2
- Number of Thy 1.2+ cells per mm^2 of epidermis, batch 4 ([3]; dose 0.50 Nanog.): 216 cells per mm^2
- Number of Thy 1.2+ cells per mm^2 of epidermis, Mean ([3]; dose 0.50 Nanog.): 219.75 cells per mm^2
- Thy 1.2+ cells % T ([3]; dose 0.50 Nanog.): 149%
- Number of Thy 1.2+ cells per mm^2 of epidermis, batch 1 ([3]; dose 1.00 Nanog.): 227 cells per mm^2
- Number of Thy 1.2+ cells per mm^2 of epidermis, batch 2 ([3]; dose 1.00 Nanog.): 238 cells per mm^2
- Number of Thy 1.2+ cells per mm^2 of epidermis, batch 3 ([3]; dose 1.00 Nanog.): 230 cells per mm^2
- Number of Thy 1.2+ cells per mm^2 of epidermis, batch 4 ([3]; dose 1.00 Nanog.): 225 cells per mm^2
- Number of Thy 1.2+ cells per mm^2 of epidermis, Mean ([3]; dose 1.00 Nanog.): 230.00 cells per mm^2
- Thy 1.2+ cells % T ([3]; dose 1.00 Nanog.): 161%
- Number of Ia+ cells per mm^2 of epidermis, batch 1 ([4]; dose 0.10 Nanog.): 360 cells per mm^2
- Number of Ia+ cells per mm^2 of epidermis, batch 2 ([4]; dose 0.10 Nanog.): 390 cells per mm^2
- Number of Ia+ cells per mm^2 of epidermis, batch 3 ([4]; dose 0.10 Nanog.): 378 cells per mm^2
- Number of Ia+ cells per mm^2 of epidermis, batch 4 ([4]; dose 0.10 Nanog.): 320 cells per mm^2
- Number of Ia+ cells per mm^2 of epidermis, Mean ([4]; dose 0.10 Nanog.): 362.00 cells per mm^2
- Ia+ cells % ([4]; dose 0.10 Nanog.): 253%
- Number of Ia+ cells per mm^2 of epidermis, batch 1 ([4]; dose 0.50 Nanog.): 388 cells per mm^2
- Number of Ia+ cells per mm^2 of epidermis, batch 2 ([4]; dose 0.50 Nanog.): 398 cells per mm^2
- Number of Ia+ cells per mm^2 of epidermis, batch 3 ([4]; dose 0.50 Nanog.): 386 cells per mm^2
- Number of Ia+ cells per mm^2 of epidermis, batch 4 ([4]; dose 0.50 Nanog.): 400 cells per mm^2
- Number of Ia+ cells per mm^2 of epidermis, Mean ([4]; dose 0.50 Nanog.): 393.00 cells per mm^2
- Ia+ cells % ([4]; dose 0.50 Nanog.): 283%
- Number of Ia+ cells per mm^2 of epidermis, batch 1 ([4]; dose 1.00 Nanog.): 400 cells per mm^2
- Number of Ia+ cells per mm^2 of epidermis, batch 2 ([4]; dose 1.00 Nanog.): 410 cells per mm^2
- Number of Ia+ cells per mm^2 of epidermis, batch 3 ([4]; dose 1.00 Nanog.): 438 cells per mm^2
- Number of Ia+ cells per mm^2 of epidermis, batch 4 ([4]; dose 1.00 Nanog.): 415 cells per mm^2
- Number of Ia+ cells per mm^2 of epidermis, Mean ([4]; dose 1.00 Nanog.): 415.75 cells per mm^2
- Ia+ cells % ([4]; dose 1.00 Nanog.): 306%

Substance: A-Gln-Gly-Gly-Ser-Asn-NH2 (QGGSN; not fully specified (N-terminus, C-terminus)) [ETF No. IX, A not specified; lyophilized in Dextran for the test]
- Stimulation % (46-47 KD keratin synthesis) ([1]; Concentration 10^-6 M): 90%
- Stimulation % (46-47 KD keratin synthesis) ([1]; Concentration 10^-8 M): 95%
- Stimulation % (46-47 KD keratin synthesis) ([1]; Concentration 10^-10 M): 86%
- Stimulation % (46-47 KD keratin synthesis) ([1]; Concentration 10^-12 M): 41%
- Stimulation % (keratohyalin synthesis) ([2]; Concentration 10^-6 M): 62%
- Keratin/protein mean (keratohyalin synthesis, Table III) ([2]; Concentration 10^-6 M): 5.97
- Stimulation % (keratohyalin synthesis) ([2]; Concentration 10^-8 M): 83%
- Keratin/protein mean (keratohyalin synthesis, Table III) ([2]; Concentration 10^-8 M): 6.75
- Stimulation % (keratohyalin synthesis) ([2]; Concentration 10^-10 M): 39%
- Keratin/protein mean (keratohyalin synthesis, Table III) ([2]; Concentration 10^-10 M): 5.13
- Stimulation % (keratohyalin synthesis) ([2]; Concentration 10^-12 M): 38%
- Keratin/protein mean (keratohyalin synthesis, Table III) ([2]; Concentration 10^-12 M): 5.11
